Laboratory results from PubChem BioAssay (NCI).
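Test compounds were applied to cells in 96-well plates for 48 hours at 5 doses. The concentration for 50% growth inhibition is given as GI50. TGI marks complete inhibition of growth.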

Experiments:
Test in all cases: inhibition of tumour cell growth, NCI panel, 48 h
[1] = test system: 786-0 renal
[2] = test system: A498 renal
[3] = test system: A549 NSCLC
[4] = test system: ACHN renal
[5] = test system: BT-549 breast
[6] = test system: CAKI-1 renal
[7] = test system: CCRF-CEM leukemia
[8] = test system: COLO 205 colon
[9] = test system: DU-145 prostate
[10] = test system: EKVX NSCLC
[11] = test system: HCC-2998 colon
[12] = test system: HCT-116 colon
[13] = test system: HCT-15 colon
[14] = test system: HL-60(TB) leukemia
[15] = test system: HOP-62 NSCLC
[16] = test system: HOP-92 NSCLC
[17] = test system: HS 578T breast
[18] = test system: HT29 colon
[19] = test system: IGROV1 ovarian
[20] = test system: K-562 leukemia
[21] = test system: KM12 colon
[22] = test system: LOX IMVI melanoma
[23] = test system: M14 melanoma
[24] = test system: MALME-3M melanoma
[25] = test system: MCF7 breast
[26] = test system: MDA-MB-231 breast
[27] = test system: MDA-MB-435
[28] = test system: MOLT-4 leukemia
[29] = test system: NCI-H226 lung
[30] = test system: NCI-H23 lung
[31] = test system: NCI-H460 lung
[32] = test system: NCI-H522 lung
[33] = test system: NCI/ADR-RES ovarian
[34] = test system: OVCAR-3 ovarian
[35] = test system: OVCAR-4 ovarian
[36] = test system: OVCAR-5 ovarian
[37] = test system: OVCAR-8 ovarian
[38] = test system: PC-3 prostate
[39] = test system: RPMI-8226 leukemia
[40] = test system: RXF 393 renal
[41] = test system: SF-268 CNS
[42] = test system: SF-295 CNS
[43] = test system: SF-539 CNS
[44] = test system: SK-MEL-2 melanoma
[45] = test system: SK-MEL-28 melanoma
[46] = test system: SK-MEL-5 melanoma
[47] = test system: SK-OV-3 ovarian
[48] = test system: SN12C renal
[49] = test system: SNB-19 CNS
[50] = test system: SNB-75 CNS
[51] = test system: SR leukemia
[52] = test system: SW-620 colon
[53] = test system: T-47D breast
[54] = test system: TK-10 renal
[55] = test system: U251 CNS
[56] = test system: UACC-257 melanoma
[57] = test system: UACC-62 melanoma
[58] = test system: UO-31 renal

COc1ccc(C(=O)c2cc(OC)c3c(c2)OCO3)cc1O
GI50 [1]: 933 nM | TGI [1]: > 100000 nM | GI50 [2]: 2340 nM | TGI [2]: 7500 nM | GI50 [3]: 614 nM | TGI [3]: > 100000 nM | GI50 [4]: 1570 nM | TGI [4]: > 100000 nM | GI50 [5]: 3060 nM | TGI [5]: > 100000 nM | GI50 [6]: 1410 nM | TGI [6]: > 100000 nM | GI50 [7]: 298 nM | TGI [7]: > 100000 nM | GI50 [8]: 7510 nM | TGI [8]: 21000 nM | GI50 [9]: 340 nM | TGI [9]: 3520 nM | GI50 [10]: 19800 nM | TGI [10]: > 100000 nM | GI50 [11]: 1720 nM | TGI [11]: > 31500 nM | GI50 [12]: 345 nM | TGI [12]: 9190 nM | GI50 [13]: 112 nM | TGI [13]: > 100000 nM | GI50 [14]: 119 nM | TGI [14]: 2240 nM | GI50 [15]: 383 nM | TGI [15]: > 54200 nM | GI50 [16]: 824 nM | TGI [16]: 52700 nM | GI50 [17]: 190 nM | TGI [17]: > 32100 nM | GI50 [18]: 3180 nM | TGI [18]: > 57200 nM | GI50 [19]: 1180 nM | TGI [19]: > 100000 nM | GI50 [20]: 45.9 nM | TGI [20]: > 100000 nM | GI50 [21]: 50.5 nM | TGI [21]: 2640 nM | GI50 [22]: 180 nM | TGI [22]: > 100000 nM | GI50 [23]: 47.3 nM | TGI [23]: 5220 nM | GI50 [24]: 6720 nM | TGI [24]: > 100000 nM | GI50 [25]: 332 nM | TGI [25]: 64000 nM | GI50 [26]: 572 nM | TGI [26]: > 100000 nM | GI50 [27]: 22.1 nM | TGI [27]: 60.3 nM | GI50 [28]: 617 nM | TGI [28]: > 100000 nM | GI50 [29]: 2490 nM | TGI [29]: 8810 nM | GI50 [30]: 248 nM | TGI [30]: > 24800 nM | GI50 [31]: 299 nM | TGI [31]: 9450 nM | GI50 [32]: 25.9 nM | TGI [32]: 105 nM | GI50 [33]: 43.6 nM | GI50 [34]: 213 nM | TGI [34]: 481 nM | GI50 [35]: 1720 nM | TGI [35]: > 100000 nM | GI50 [36]: 4490 nM | TGI [36]: > 100000 nM | GI50 [37]: 387 nM | TGI [37]: > 100000 nM | GI50 [38]: 908 nM | TGI [38]: > 100000 nM | GI50 [39]: 309 nM | TGI [39]: > 44000 nM | GI50 [40]: 215 nM | TGI [40]: 674 nM | GI50 [41]: 287 nM | TGI [41]: 16100 nM | GI50 [42]: 832 nM | TGI [42]: > 100000 nM | GI50 [43]: 199 nM | TGI [43]: 3070 nM | GI50 [44]: 346 nM | TGI [44]: 34400 nM | GI50 [45]: 457 nM | TGI [45]: > 100000 nM | GI50 [46]: 261 nM | TGI [46]: 1710 nM | GI50 [47]: 200 nM | TGI [47]: 1580 nM | GI50 [48]: 1090 nM | TGI [48]: > 100000 nM | GI50 [49]: 377 nM | TGI [49]: > 100000 nM | GI50 [50]: 166 nM | TGI [50]: 34600 nM | GI50 [51]: 42.3 nM | TGI [51]: > 100000 nM | GI50 [52]: 57.7 nM | TGI [52]: > 100000 nM | GI50 [53]: 883 nM | TGI [53]: > 100000 nM | GI50 [54]: 5700 nM | TGI [54]: 99400 nM | GI50 [55]: 315 nM | TGI [55]: > 100000 nM | GI50 [56]: 1130 nM | TGI [56]: > 79500 nM | GI50 [57]: 946 nM | TGI [57]: > 100000 nM | GI50 [58]: 3640 nM | TGI [58]: > 100000 nM
